Columns and labels:
[1] = system: patients with primary mitochondrial disease; test: Safety and tolerability in patients with primary mitochondrial disease (Part C); format: in vivo; conditions: multiple oral QD doses of 50 mg for 10 days
Source text: (§1) Part C will comprise a randomised, multiple-dose, single-group, placebo-controlled study. A total of 8 patients diagnosed with any mitochondrial disease will be enrolled in this part of the study. Part C may start after the dose selection conference has been completed for the final cohort of Part B, at a daily dose no higher than the highest well-tolerated dose in Part B.
Two patients will be initially dosed, with 1 patient receiving KL1333 and 1 patient receiving placebo. If there are no safety or tolerability concerns in these patients following the Day 4 visit, the remaining 6 patients, with 5 patients receiving KL1333 and 1 patient receiving placebo, will be enrolled on a rolling basis. In the event there are safety concerns following completion of the 2 sentinel patients without meeting stopping criteria, the Sponsor may add intermediate cohorts if the safety evaluation in intermediate cohorts will be needed. The dosing schedule of intermediate cohorts will be the same as that of the planned cohort. The schedule of safety assessments of intermediate cohorts will be the same as that of the planned cohort as a general rule. Whether or not to add safety assessments in the intermediate cohorts will be determined by the Sponsor.
It is planned for patients to receive study drug QD on Days 1 to 10. […]

[2] = system: cells derived from patients with MELAS; test: Cellular models, including cells derived from patients with MELAS; format: cell-based, human; conditions: including MELAS patient-derived cells
[3] = system: patients with primary mitochondrial disease; test: NeuroQoL Short Form Fatigue in primary mitochondrial disease patients; format: in vivo, human
[4] = Plasma exposure of Total KL1333, Part C patients with primary mitochondrial disease; conditions: human, in vivo
Source text: as §1
It is planned for patients to receive study drug QD on Days 1 to 10. Dose levels, dose frequency, and dietary state will be confirmed following review of safety, tolerability, and PK data from Part B, and unless deemed very unfavourable for the conduct of the study, the patients will not be required to be fasting prior to dosing. Study drug will be administered by clinical site staff when the patients are resident at the clinical site or return for outpatient visits. On all other days, patients will record drug administration and any concomitant medications in a diary that will be provided to each patient. Diaries will be reviewed and checked for compliance during the outpatient visits and as part of the check-in procedures on Day 10. Clinical symptoms that occur while patients are not resident at the site will be collected by the site using standard adverse event (AE) reporting procedures. […]

[5] = Drug substance properties; format: physicochemical; conditions: crystalline powder
Source text: KL-1333 is a drug substance with a molecular mass of 240.26 g/mol. […] It is manufactured via multi-step chemical synthesis.

[6] = system: patients with primary mitochondrial disease; test: Daily Fatigue Impact Scale (D-FIS) in primary mitochondrial disease patients; format: in vivo, human
[7] = system: patients with primary mitochondrial disease; test: Clinical outcome assessments overall in primary mitochondrial disease patients; format: in vivo, human
[8] = system: blood lactate/pyruvate ratio; test: Blood lactate/pyruvate ratio in healthy volunteers; format: in vivo, human
Description: FIG. 5. Healthy volunteers were treated with KL1333 (n=36) or placebo (n=14) once daily for 9 days prior to blood sampling for measurement of lactate and pyruvate concentrations and calculation of a lactate pyruvate ratio. Data for different doses of KL1333 were combined, including 50 mg QD, 50 mg TID, 75 mg QD, 75 mg BID, 150 mg QD and 250 mg QD.
FIG. 6. The blood lactate/pyruvate concentration ratio decreased with increasing concentration of KL1333 in plasma Day 10 after treatment with KL1333. Healthy volunteers were treated with KL1333 (n=36) or placebo (n=14) once daily for 9 days prior to blood sampling for measurement of lactate and pyruvate concentrations and calculation of a lactate pyruvate ratio. Data for different doses of KL1333 were combined from 7 cohorts consisting of two placebo and 6 KL1333 subjects, treated with 25 mg QD, 50 mg QD, 50 mg TID, 75 mg QD, 75 mg BID, 150 mg QD and 250 mg QD. Data were normalized against the cohort mean value for each cohort.
For Parts B through D, blood biomarker assessments will include: • nicotinamide adenine dinucleotide (oxidized form; NAD^+)/nicotinamide adenine dinucleotide (reduced form; NADH) concentrations and ratio • fibroblast growth factor-21 (FGF21) • growth/differentiation factor-15 (GDF15) • lactate/pyruvate concentrations and ratio.

NQO1 = NQO1 (Homo sapiens, UniProt P15559); test: NQO1 substrate activity; format: biochemical; conditions: compared with other NQO1 active compounds (ie, idebenone)
Chain of NQO1 (P15559 whole entry, species assumed): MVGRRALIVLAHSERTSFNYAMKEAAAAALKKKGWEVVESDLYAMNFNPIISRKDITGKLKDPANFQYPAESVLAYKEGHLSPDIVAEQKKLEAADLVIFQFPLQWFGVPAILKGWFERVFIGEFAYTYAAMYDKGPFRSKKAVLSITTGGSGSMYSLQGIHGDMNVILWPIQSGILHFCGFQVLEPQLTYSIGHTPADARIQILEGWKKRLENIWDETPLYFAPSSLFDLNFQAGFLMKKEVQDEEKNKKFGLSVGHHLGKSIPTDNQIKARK
Source text: KL1333 is a novel compound under development for primary mitochondrial diseases. KL1333 acts as a substrate for NAD(P)H:dehydrogenase [quinone]1 (NQO1), which produces nicotinamide adenine dinucleotide (oxidized form; NAD^+) by transferring 2 electrons to KL1333 using nicotinamide adenine dinucleotide (reduced form; NADH) as a cofactor. KL1333 transfers these electrons to the mitochondrial electron transport system, directly promoting ATP production. Additionally, the elevated NAD^+ levels lead to activation of mitochondrial biogenesis pathways, such as sirtuin 1 (SIRT1), 5′-adenosine monophosphate-activated protein kinase (AMPK), and peroxisome proliferator-activated receptor gamma coactivator 1-alpha (PGC-1α), thereby improving mitochondrial function.

[9] = 50 mg once daily, 10 days of dosing, PMD patients

With `CC(C)c1nc2c([nH]1)C(=O)C(=O)c1ccccc1-2` [KL1333] the tolerability [1] was “well tolerated”, the ATP [2] was “increased ATP” and the “NAD+” value [2] was “increased NAD^+”. The ROS [2] was “decreased ROS”, the “SIRT1, AMPK and PGC-1α activation” value [2] was “activation of SIRT1, AMPK, and PGC-1α” and the lactic acid [2] was “decreased lactic acid”. For the same compound, the “mitochondrial oxidative phosphorylation function” value [2] was “improved mitochondrial oxidative phosphorylation function”, the “NeuroQoL Short Form Fatigue, mean change” value ([3]; 50 mg QD for 10 days, baseline to day 10, n=6 versus placebo n=2) was “improvement” and the “NeuroQol fatigue change from baseline, high exposure group versus placebo” value ([3]; 50 mg QD for 10 days, high exposure patients, Kruskal-Wallis test) was “statistically significant better than placebo”. For the same compound, the “correlation of NeuroQol SF Fatigue raw score change with Total KL1333 Ctrough” value ([3]; change from baseline to day 10, Ctrough at day 10) was “statistically significant correlation”, the “pharmacokinetics profile, healthy volunteers versus patients” value [4] was “similar” and the hygroscopicity [5] was “non-hygroscopic”. For the same compound, the solubility in water [5] was “practically insoluble”, the “Daily Fatigue Impact Scale, mean change” value ([6]; 50 mg QD for 10 days, versus placebo, reduction of fatigue impacts on daily activities) was “greater improvement” and the “correlation of DFIS change with Total KL1333 Ctrough” value ([6]; change from day-1 to day 10, Ctrough at day 10) was “statistically significant correlation”. The fatigue [7, 9] was “marked improvement in fatigue”, the muscle strength [7, 9] was “marked improvement in muscle strength” and the “combatting fatigue and muscle weakness” value ([7]; clinical outcome assessments of primary mitochondrial disease patients) was “effective”. The “blood lactate pyruvate ratio in relation to plasma concentration of KL1333” value ([8]; Day 10, plasma concentration prior to blood sampling) was “lowest in individuals with a plasma concentration of KL1333 exceeding 100 ng/ml”, the blood lactate/pyruvate ratio ([8]; after 10 days of treatment, doses combined (n=36 versus placebo n=14)) was “trend of decreasing” and the “potency as substrate to NQO1” value (NQO1) was “more potent substrate to NQO1 than other NQO1 active compounds”.

— patent US20240238255A1, “KL1333 FOR USE IN MEDICINE” (ABLIVA AB, priority 2021, published 2024)
